Measurements: patent US20090318492A1, “INDOLE COMPOUNDS HAVING C4-ACIDIC SUBSTITUENTS AND USE THEREOF AS PHOSPHOLIPASE-A2 INHIBITORS” (priority 2005, published 2009)

Experiment: Example 9 mouse pharmacokinetic study
Assay type: in vivo
Conditions: serum, PO 30 mg/kg vs IV 3 mg/kg, male CD-1 mice
Experimental: The plasma exposure of male CD-1 mice to indole and indole-related test articles (TAs) following intravenous (IV, 3 mg/kg) and oral (PO, 30 mg/kg) routes of administration was measured. This model was used to investigate the bioavailability of indole and indole-related TAs in mouse. Mice were selected for the study since they are an accepted species frequently used in pre-clinical evaluation of drugs intended for human use.
Male CD-1 mice (7-8 weeks old) were obtained from Charles River Laboratories (Wilmington, Mass.). Two groups (N=18 and 27) of male CD-1 mice were used for the study. Upon arrival, the animals were placed on Rodent Diet 5001 (Purina Mills, Inc., St. Louis, Mo.). […]
All animals were weighed on study day (1) and the body weights were recorded and used for dose calculation. […] Clinical observations were recorded as needed.
Analysis of serum samples was performed by LC/MS/MS (Waters Quattro Premier, Milford, Mass.). Areas under curves (AUC) were calculated using Graphpad Prism Version 4. Bioavailability was calculated using the following equation: […]
where AUC0-t=total area under curve at the last measurable time point Based on the serum levels analyzed by LC/MS/MS, the calculated bioavailability of indole and indole-related TAs in CD-1 mice is summarized in Table 4.3.

Work on `Cc1c(C(=O)C(N)=O)c2c(OCC(=O)NS(=O)(=O)CCCC(=O)O)cccc2n1Cc1ccccc1` [ILY-IV-40, 4-[2-(3-Aminooxalyl-1-benzyl-2-methyl-1H-indol-4-yloxy)-acetylsulfamoyl]-butyric acid] yielded a bioavailability of 0.5%.
